Conditions: non-opioid-dependent patients; intravenous administration of 200 mg morphine

In the case of `C=CCN1CC[C@]23c4c5ccc(O)c4O[C@H]2C(=O)CC[C@@]3(O)[C@H]1C5` [naloxone, (5R,9R,13S,14S)-17-allyl-3,14-dihydroxy-4,5-epoxymorphinan-6-on], the “naloxone sufficient to trigger discrete withdrawal symptoms” value is reported as 0.4 mg.

Source: patent publication US20120040009A1, “PARTICULATE PHARMACEUTICAL COMPOSITION WITH AN OPIOID AND AN OPIOID ANTAGONIST” (priority 2009, published 2012)
